Measurements reported in patent US20240352053A1, “SALT AND CRYSTAL FORM OF EGFR INHIBITOR, AND COMPOSITION AND USE THEREOF” (BETTA PHARMACEUTICALS CO., LTD, priority 2021, published 2024).
Read-outs that look alike come from different tables or passages of the source.

How the values were obtained:
[1] = test system: Ba/F3-Δ19del/T790M/C797S cells; details: 72 hours, CTG; data recorded in PCT/CN2021/075994; read-out: Ba/F3/EGFR Δ19del/T790M/C797S IC50; cited from earlier work
[2] = test system: human epidermal cancer cell A431 carrying EGFR WT; details: 72 hours, CTG; data recorded in PCT/CN2021/075994; cited from earlier work
Ba/F3 EGFR WT cells = details: 72 hours, CTG; data recorded in PCT/CN2021/075994; read-out: BaF3 EGFR WT IC50; cited from earlier work
[3] = Pharmacokinetic test, oral administration in male SD rats; format: in vivo, rat; details: 50 mg/kg, distilled water, plasma
Method: Male SD rats purchased from Beijing Weitonglihua Experimental Animal Technology Co Ltd. were used for oral administration PK studies. The dose was 50 mg/kg, the preparation was distilled water, and the compound concentrations corresponding to the test compounds were 5 mg/mL, ready for use. Oral administration is by oral gavage at 10 mL/kg. Blood was collected through the rat orbital venous plexus, and […] was taken at each time point into an EDTA anticoagulant tube. The blood collection time is: 15 min, 30 min, 1 h, 2 h, 4 h, 7 h, 24 h, 30 h, 48 h, centrifuge at 4000 rpm for 10 min, take the supernatant to obtain 100 μL plasma, and store it in a −80° C. refrigerator, spare. After precipitating the protein from the above plasma sample with acetonitrile, take the supernatant and mix it with water 1:1, and take 10 μL for LC-MS/MS detection.

[4] = Measurement of crystal form stability (HPLC chemical purity, XRPD); format: physicochemical; details: for Chemical purity (%) 0 days: HPLC
Method: The X-ray powder diffraction pattern detection equipment and method of the present invention are as shown in the X-ray powder diffraction table in the instrument and analysis method. After the test compounds are placed under different temperature, humidity and light conditions for a period of time, the purity is tested. Purity testing method: Use high-performance liquid chromatography (HPLC) to detect the chemical purity of this product. Determine according to high performance liquid chromatography (“Chinese Pharmacopoeia” 2020 edition, Part IV, General Chapter 0512). […] XRPD characterization was performed on the samples after being placed under different temperature, humidity and light conditions for a period of time.

[5] = DVS test (dynamic vapor sorption); format: physicochemical
Description: Take crystal form A of the compound represented by Formula III for DVS measurement, and the obtained DVS spectrum is shown in FIG. 5-2.

Which IC50 [1] does the source give for `CCc1cc(Nc2ncc(Br)c(Nc3ccc4ncccc4c3P(C)(C)=O)n2)c(OC)cc1N1CCC(N2CCN(C)CC2)CC1` [Control Example 1, reference compound] here?
The IC50 was 9 nM.

And the IC50 [2]?
Its IC50 is 245 nM.

What about the IC50 (Ba/F3 EGFR WT cells) of the same compound?
The IC50 was 39.9 nM.

Which AUClast [3] does the source give for `COc1cc(N2CCC(N3CCN(C)CC3)CC2)c(C)cc1Nc1ncc(Br)c(Nc2ccc3nc(C4CC4)ccc3c2P(C)(C)=O)n1.O=C(O)C[C@H](O)C(=O)O` [Crystal form A of the compound represented by formula III] here?
Its AUClast is 47593 ng·h/mL.

And the Cmax [3]?
The Cmax was 2557 ng/mL.

And the “Chemical purity (%) 0 days” value [4]?
The value was 98.85%.

And the “Chemical purity (%) 60° C.” value ([4]; 60° C., placement time 13 days)?
The value was 98.80%.

And the “Chemical purity (%) 92.5% RH” value ([4]; placement time 13 days)?
Its value is 98.98%.

What about the “Chemical purity (%) 4500 lx illumination” value ([4]; placement time 13 days) of the same compound?
Its value is 98.83%.

What about the hygroscopic weight gain ([5]; 25° C./80% RH) of the same compound?
The hygroscopic weight gain was “about 3.43%”.

What about the “sample weight after placement in DVS” value ([5]; 25° C./80% RH for 24 hours) of the same compound?
Its value is “remained basically unchanged”.

And the “crystal form after placement in DVS” value ([5]; 25° C./80% RH, after 24 hours)?
The value was “did not change”.

What about the “crystal form before and after the DVS test” value ([5]; DVS, 25° C.) of the same compound?
Its value is “does not change”.

With `COc1cc(N2CCC(N3CCN(C)CC3)CC2)c(C)cc1Nc1ncc(Br)c(Nc2ccc3nc(C4CC4)ccc3c2P(C)(C)=O)n1` [(6-((5-bromo-2-((2-methoxy-5-methyl-4-(4-(4-methylpiperazin-1-yl))piperidin-1-yl)phenyl)amino)pyrimidin-4-yl)amino)-2-cyclopropylquinolin-5-yl)dimethylphosphine oxide] as the compound, how does the IC50 [1] read?
Its IC50 is 6.8 nM.

And the IC50 [2]?
Its IC50 is 1130 nM.

What about the IC50 (Ba/F3 EGFR WT cells) of the same compound?
Its IC50 is 151 nM.

Which “Chemical purity (%) 0 days” value [4] does the source give for `COc1cc(N2CCC(N3CCN(C)CC3)CC2)c(C)cc1Nc1ncc(Br)c(Nc2ccc3nc(C4CC4)ccc3c2P(C)(C)=O)n1.O=C(O)C[C@H](O)C(=O)O` [Crystal form J of the compound represented by formula III] here?
Its value is 99.59%.

What about the “Chemical purity (%) 92.5% RH” value ([4]; placement time 10 days) of the same compound?
The value was 99.59%.

What about the “Chemical purity (%) 4500 lx illumination” value ([4]; placement time 10 days) of the same compound?
Its value is 96.05%.

With `COc1cc(N2CCC(N3CCN(C)CC3)CC2)c(C)cc1Nc1ncc(Br)c(Nc2ccc3nc(C4CC4)ccc3c2P(C)(C)=O)n1.O=C(O)C[C@H](O)C(=O)O` as the compound, how does the AUC(0-t) ([3]; male, SD, rat, po) read?
Its AUC(0-t) is 27400 ng·h/mL.

What about the Cmax ([3]; male, SD, rat, po, read-out: Cmax) of the same compound?
The Cmax was 1990 ng/mL.
